This is an account of results in patent US5804603A, “Synthesized β-adrenergic blockers derivatives of guaiacol” (National Science Council, priority 1995, dated 1998).

Series [1] concerns carrageenin-induced paw edema. The note with it: in vivo; cited from earlier work.
The subject of series [2] is platelets. The note with it: cited from earlier work.
The subject of series [3] is isolated portal veins. To be noted: mice; cited from earlier work.
Series [4] deals with blood vessels. To be noted: mouse and rat; cited from earlier work.
Series [5] deals with right eye of male Wistar rats. Put plainly: Eye wiping test (pain-producing potency). The note with it: for pain producing potency: eye drops 10^-4 to 10^-2 M, 30 min, FIG. 1. It is filed as in vivo. Here is the method: The wiping test was performed as described by Szolcsanyiand, Jancso-Gabor. Briefly, the solution or suspension of the test compound and its analogs was made up in 10% ethanol, 5% Tween 80 and then diluted with saline to the required concentrations. Each solution or suspension of 10^-4 M, 10^-3 M, 10^-2 M was dropped into the right eye (vehicle being administered to the left eye as negative control) of male Wistar rats weighing 180-250 g and the total number of protective movements (scratching, wiping of the eye with the foreleg) was counted for 30 minutes. Each test was carried out with a total of 6 rats, and a dose-response curve was obtained from the mean value of each group.

Series [6] in a line: Water solubility. It is filed as physicochemical.
In series [7] the target is β-receptor (Cavia porcellus, UniProt H0W3H1). Put plainly: Receptor binding assay, [3H]-dihydroalprenolol, heart ventricle membranes. To be noted: for IC50: FIG. 15 and Table 4.
Procedure: Method of receptor binding assay. After punching the heads of guinea pigs, the blood was drained and the heart ventricle immediately removed. The ventricles were placed in 10 vols. of ice-cold buffer (250 mM sucrose, 1 mM Magnesium Chloride, 50 mM Tris-HCl, pH 7.5) and all subsequent procedures were carried out at 4° C. The ventricles were homogenized using a homogenizer 3-4 times. The period of each homogenization took 15 seconds. […] The supernatant was further centrifuged at 10,000 g and the final pellet was resuspended in a small volume of 75 mM Tris buffer containing 25 mM Magnesium Chloride. The membrane protein content was determined by a protein assay dye. The receptor binding assay was initiated by incubating 100 μl of, a membrane protein solution with 50 μl of [^3 H]-dihydroalprenolol(^3 H-DHA) and the competing drugs. Additional buffer was added to increase the reaction volume up to 250 μl. The binding reaction was activated at 25° C. water by constantly shaking for 60 minutes. The binding reaction was stopped by diluting it with 1 ml of ice-cold assay buffer. The solution was then filtered on a Whatman GF/C glass fiber filter paper under vacuum suction. The filters were washed 3 times with ice-cold assay buffer and dried at 60±C. in an oven for 2 hrs. Then 4 ml of scintillation fluid was added and the radioactivity was counted on β-counter.
In series [8] the test system is acetic acid-induced writhing syndrome. Put plainly: Acetic acid-induced writhing (antinociceptive test). It counts as in vivo, male mice (ddk strain). The procedure: Following the method described by Koster antinociceptive tests were carried out in male mice after intraperitoneal administration of test solution. […] The test solution was administered by intraperitoneal injection of a single dose 0.2 ml (vehicle administered as control). Twenty minutes after injection, 0.2 ml of 0.7% acetic acid was injected intraperitoneally to induce writhing.
On the technique in general: In writhing tests, fewer writhes than in controls are read as antinociception.

In series [9] the test system is heart rate and blood pressure. Put plainly: Heart rate and blood pressure of anesthetized rats (i.v.). It is filed as in vivo. From the text: […]. The effect of DZN on heart rate and blood pressure were monitored.
[…]. Exp. Ther., vol. 96, 99-113). The ID50 value is the response of a β drug which produces a response in 50% of […].

In series [10] the target is T1, β1 adrenergic receptor (Cavia porcellus, UniProt H0W3H1).
T1 construct: isolated guinea pig right atrium; from tissue; host or cells: guinea pig right atrium (isolated organ)
Put plainly: Antagonism of isoproterenolol on isolated guinea pig right atrium. It counts as cell-based. From the text: (§1) A bath as described in Gen.
(§2) The determination of the pA2 is made from experiments in which a fixed concentration of the antagonist is used along with graded concentrations of an agonist acting on the same receptor. The presence of the antagonist shifts the agonist dose-response curve to the right.

Series [11] concerns β1 adrenergic receptor. The series is described as above. It counts as cell-based.
Text: as §1, §2

For series [12], the target named is T2, β2 adrenergic receptor (Rattus norvegicus, UniProt P10608).
T2 construct: from tissue; host or cells: rat uterus horns (isolated organ, stilbestrol and reserpine pretreated)
Put plainly: Antagonism of isoproterenolol on isolated rat uterus horns. It is filed as cell-based. The procedure: Female rats were intraperitonealy injected with stilbestrol (1 mg/kg) to elevate the sensitivity of β2 adrenergic receptor in uterus horns. The rats were subsequently administered reserpine to deplete the catecholamine in uterus. The isolated uterus horns were treated with phenoxybenzamine to block the neuronal uptake and the interaction between neuron cells and the adrenergic receptor.

The test system of series [13] is platelet aggregation induced by collagen. Put plainly: Collagen-induced platelet aggregation in platelet rich plasma. It is filed as cell-based. The note with it: 10 μg/ml collagen, PRP.
Procedure: A monophasic aggregation curve was observed when 10 μg/ml of collagen was added to platelet rich plasma (PRP).
Series [14] in a line: in vivo. The note with it: mouse, mice, read-out: LD50 (95% C.L.).
The test system of series [15] is intraocular pressure. To be noted: in vivo; cited from earlier work.

For orientation: EC50 means the concentration giving half of the maximal effect. A low value points to a more potent agent. As usually defined, the LD50 is the dose at which mortality reaches 50%.

Molecules are shown by their SMILES. Where two headings read alike, the source gives them in different places.

T1 sequence (H0W3H1 1-470): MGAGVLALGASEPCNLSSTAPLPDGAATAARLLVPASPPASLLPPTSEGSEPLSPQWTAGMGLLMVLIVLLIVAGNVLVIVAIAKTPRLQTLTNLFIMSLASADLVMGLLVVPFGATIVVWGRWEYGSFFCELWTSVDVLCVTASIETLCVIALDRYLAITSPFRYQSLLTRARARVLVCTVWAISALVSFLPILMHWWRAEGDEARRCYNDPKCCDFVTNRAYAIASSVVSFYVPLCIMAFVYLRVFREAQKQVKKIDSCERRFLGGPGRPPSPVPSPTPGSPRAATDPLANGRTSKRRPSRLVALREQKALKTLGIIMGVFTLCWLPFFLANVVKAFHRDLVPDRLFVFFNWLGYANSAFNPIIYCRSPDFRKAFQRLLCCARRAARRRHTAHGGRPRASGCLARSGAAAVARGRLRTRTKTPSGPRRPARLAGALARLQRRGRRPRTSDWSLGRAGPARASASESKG
Chain of β-receptor (H0W3H1 1-470): as above
T2 sequence (P10608 whole entry): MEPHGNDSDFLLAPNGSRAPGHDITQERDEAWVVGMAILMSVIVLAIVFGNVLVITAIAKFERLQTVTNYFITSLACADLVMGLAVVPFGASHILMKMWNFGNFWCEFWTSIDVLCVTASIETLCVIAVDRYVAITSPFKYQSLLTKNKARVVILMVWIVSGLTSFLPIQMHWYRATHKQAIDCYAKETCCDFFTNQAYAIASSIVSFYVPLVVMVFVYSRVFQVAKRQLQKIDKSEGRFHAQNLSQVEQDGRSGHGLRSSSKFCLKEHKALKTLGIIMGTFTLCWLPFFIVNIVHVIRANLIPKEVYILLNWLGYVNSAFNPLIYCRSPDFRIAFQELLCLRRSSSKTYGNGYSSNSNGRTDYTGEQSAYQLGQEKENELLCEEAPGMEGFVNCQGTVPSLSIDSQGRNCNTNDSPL

As to `CCCCC/C=C/C(=O)CCc1ccc(O)c(OC)c1` [Shogaol], the carrageenin-induced paw edema result in series [1] was “inhibitory activity”. In addition, the platelet aggregation result in series [2] was “inhibitory activity”.
For `CCCCC[C@H](O)CC(=O)CCc1ccc(O)c(OC)c1` [Gingerol], the “contraction of isolated portal veins” value in series [3] is given as “suppresses the contraction of isolated portal veins in mice”. Also, in series [4], the “eicosanoid-induced contraction of blood vessels” value was “modulates the eicosanoid-induced contraction of mouse and rat blood vessels”.
On to `COc1cc(C=CC(C)=O)ccc1OCC(O)CNC(C)(C)C` (racemic) [DZBN, 4-[4'-(2-hydroxy-3-tert-butylaminopropoxy)-3'-methoxyphenyl]-3-buten-2-one], for which the pain producing potency entry in series [5] was “lower than that of DZ and zingerone”. In series [5] (rat, in vivo), the pungency entry was “lower pungency”. The water solubility entry in [6] was “watersoluble”. Besides, in [7], the midpoint of the response, the EC50, lay at 3600 nM and the “IC50” value is “close to the IC50 values of the well known β-adrenergic agonist Atenolol”.
Consider `COc1cc(C=CC(C)=O)ccc1OCC(O)CNC(C)C` (racemic) [DZN, 4-[4'-(2-hydroxy-3-isopropylaminopropoxy)-3'-methoxyphenyl]-3-buten-2-one], for which the pain producing potency result in series [5] was “lower than that of DZ and zingerone”. Further, the Protection in series [8] (1.25 mg/kg i.p., N = 8) is given as 86.06%. Also, in series [8] (1.25 mg/kg i.p., N = 8), the “Writhes No. (Ave. ± S.E.)” value is 11.17 ± 2.36. The ED50 is 0.11 mg/kg in series [8] (Mus musculus, ip, mice, Litchfield and Wilcoxon method, read-out: ED50 (95% C.I.)); 0.22 mg/kg in [9] (Rattus norvegicus, iv, anesthetized rats, Litchfield method, read-out: ID50 : heart rate response (95% C.I.)). Besides, the Potency ratio in series [8] (relative to DZ = 1.00) came to 3.50. For the same compound, in series [9] (i.v. 0.1, 0.5, 1.0 mg/kg), the duration of bradycardia entry is “over 1 hr”. In [9] (i.v. 0.1, 0.5, 1.0 mg/kg, FIGS. 3-6), the bradycardia entry is given as “dose-dependent bradycardia”. Besides, the “ID50 : heart rate response (95% C.I.)” value in series [9] (i.v., anesthetized rats, Litchfield method, listed as DZH (compound 4)) was 0.22 (1.29-0.04) mg/kg. The “time of slightly reduced blood pressure after injection” value in series [9] (i.v., statistical significance not found) is 5 to 10 min. Moreover, in [9] (rat, in vivo), the “effect on blood pressure induced by isoproterenolol” value is reported as “lowered the blood pressure induced by isoproterenolol”. Also, the “effect on resting heart rate” value in series [9] (rat, in vivo) is reported as “reduced resting heart rate”. In addition, the “shift of isoproterenolol concentration-effect curve” value in series [10] (guinea pig right atrium) was “partially shifted to the right”; in [12] (10^-8 -10^-6 M DZN, rat uterus horns) it was “partially shift to the right”. In addition, the “slope of regression (Schild plot), β1” value in series [10] (guinea-pig right atrium) is given as 0.96 ± 0.05. Further, the Kb is 6.92 nM in series [10] (read-out: pA2, β1 (converted)) and 29.5 nM in series [12] (read-out: pA2, β2 (converted)). Also, in series [11], the Cardioselectivity ratio came to 4.26. In addition, the “slope of regression (Schild plot), β2” value in [12] (rat uterus) is 0.99±0.11. Besides, in series [13], the “inhibition of collagen-induced platelet aggregation” value is given as “dose-dependent inhibition of platelet aggregation”. Further, in [13] (Platelet, FIG. 18, read-out: concentration completely inhibiting platelet aggregation), the IC100 turned out to be 250 µM. Moreover, the LD50 in series [14] (ip) and in series [14] (po) was above 1000 mg/kg each time. The midpoint of the response in series [7], the EC50, lay at 1300 nM. For the same compound, the “IC50” value in series [7] is recorded as “close to the IC50 values of the well known β-adrenergic agonist Atenolol”.
`COc1cc(C=CC(C)=O)ccc1OCC(O)CNC(C)(C)C` (centres unmarked) [Vaninolol]: the “intraocular pressure (IOP)” value in [15] is recorded as “lower the intraocular pressure (IOP)”.
